# PubChem BioAssay (NCI)
#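 Cultured in 96-well plates, cells were exposed to test compound for 48 hours across five concentrations. GI50 is the concentration that inhibits growth by half. TGI: total growth inhibition.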
# Legend:
# Assay in all cases: NCI anticancer screen, dose series, 48 h
# CCRF-CEM leukemia = tested on: CCRF-CEM leukemia
# HT29 colon = tested on: HT29 colon
# IGROV1 ovarian = tested on: IGROV1 ovarian
# KM12 colon = tested on: KM12 colon
# MALME-3M melanoma = tested on: MALME-3M melanoma
# MDA-MB-435 = tested on: MDA-MB-435
# NCI-H226 lung = tested on: NCI-H226 lung
# OVCAR-4 ovarian = tested on: OVCAR-4 ovarian
# SR leukemia = tested on: SR leukemia
# UO-31 renal = tested on: UO-31 renal
Compound,GI50 (CCRF-CEM leukemia),TGI (CCRF-CEM leukemia),GI50 (HT29 colon),TGI (HT29 colon),GI50 (IGROV1 ovarian),TGI (IGROV1 ovarian),GI50 (KM12 colon),TGI (KM12 colon),GI50 (MALME-3M melanoma),TGI (MALME-3M melanoma),GI50 (MDA-MB-435),TGI (MDA-MB-435),GI50 (NCI-H226 lung),TGI (NCI-H226 lung),GI50 (OVCAR-4 ovarian),TGI (OVCAR-4 ovarian),GI50 (SR leukemia),TGI (SR leukemia),GI50 (UO-31 renal),TGI (UO-31 renal)
COc1cc(C2c3cc4c(cc3C(OC(=O)C[n+]3ccccc3)C3COC(=O)C23)OCO4)cc(OC)c1OC (stereo not given),< 0.0205 µM,> 100 µM,< 0.01 µM,> 100 µM,< 0.0207 µM,> 100 µM,< 0.0168 µM,> 100 µM,> 100 µM,> 100 µM,< 0.01 µM,< 0.01 µM,< 0.01 µM,> 100 µM,< 0.0239 µM,> 100 µM,< 0.016 µM,> 100 µM,< 0.0231 µM,> 100 µM
O=C(CCN1CCCCC1)N1CCc2c([nH]c3ccccc23)C1c1cccnc1 (stereo not given),,99 µM,,75.4 µM,,> 100 µM,,> 100 µM,,41.6 µM,,75.1 µM,,> 100 µM,,> 100 µM,,> 100 µM,,71.1 µM
C#CCN(c1ccc(C(=O)N[C@@H](CCC(=O)N[C@H](CCC(=O)O)C(=O)O)C(=O)O)cc1)C1CCc2cc3nc(CO)[nH]c(=O)c3cc21 (stereo not given in full),> 36.3 µM,> 100 µM,> 100 µM,> 100 µM,> 100 µM,> 100 µM,> 100 µM,> 100 µM,> 100 µM,> 100 µM,> 74.5 µM,> 100 µM,> 100 µM,> 100 µM,> 100 µM,> 100 µM,7.05 µM,> 100 µM,3.74 µM,> 100 µM
O=C(c1ccc(Cl)cc1)C(O)c1ccc(Cl)cc1 (stereo not given),,> 100 µM,,> 100 µM,,> 100 µM,,> 100 µM,,> 100 µM,,> 100 µM,,> 100 µM,,> 100 µM,,> 100 µM,,> 100 µM
CCOP(=O)(OCC)C(C(=O)OC)C(=O)C(=O)Nc1cccc(O)c1 (stereo not given),,> 100 µM,,> 100 µM,,> 100 µM,,> 100 µM,,> 100 µM,,> 100 µM,,> 100 µM,,> 100 µM,,> 100 µM,,> 100 µM
Cn1cc(-c2cnn3c(N)c(Br)c(C4CCCNC4)nc23)cn1 (stereo not given),0.631 µM,38.9 µM,4.19 µM,> 73 µM,6.72 µM,> 100 µM,3.69 µM,44.7 µM,6.11 µM,27.1 µM,0.754 µM,> 57.8 µM,13.9 µM,> 96 µM,14.6 µM,96.1 µM,0.326 µM,16.9 µM,4.63 µM,> 78.3 µM
